{
  "source": "patent US6921532B1",
  "about": "“Biological Bioadhesive composition and methods of preparation and use” (Spinal Restoration, Inc., priority 2000, dated 2005)",
  "assay": "Solubility / suspension in thrombin reconstituting solution",
  "details": "aqueous calcium chloride reconstituting solution",
  "source_text": "Blended betamethasone sodium phosphate and acetate solutions preferably include anti-caking agent(s) and low calcium chloride concentration(s).",
  "data": [
    {"compound": "C[C@H]1C[C@H]2[C@@H]3CCC4=CC(=O)C=C[C@]4(C)[C@@]3(F)[C@@H](O)C[C@]2(C)[C@@]1(O)C(=O)COP(=O)([O-])[O-].[Na+].[Na+]", "note": "[betamethasone sodium phosphate]", "values": [
      {"measurement": "solubility", "result": "reduced in the presence of aqueous calcium chloride"}
    ]}
  ]
}
